This passage reports ring closure, isolated yield, EC50 and IC50 results from patent US7488712B2, “Histone deacetylase inhibitors and methods for producing the same” (Kyushu Institute of Technology, priority 2002, dated 2009).

The conditions of data set [1]: amide bond, 12-membered ring, HATU/DIEA, DMF.
Data set [2] concerns human wild-type p21 promoter. The experiment in a line: p21 promoter-inducing activity (luciferase) in MFLL-9 cells. Format: cell-based. As for the experimental part:
The HDAC inhibition activity in vivo was measured using p21 promoter-inducing activity as an index, as shown below. The MFLL-9 cells employed for the experiments stably maintained fusion genes of human wild-type p21 promoter and luciferase (Dr. B. Vogelstaein). Using phenol red-free DMEM medium comprising 10% FBS, cultivation was carried out in a steam-saturated incubator at 37° C. with 5% carbon dioxide. The MFLL-9 cells were plated at a density of 85,000 cells/well on a 96-well microtiter plate, each in 99 μl of the above-mentioned medium. These were then cultivated for six hours. One μl of test compound solution was added to each well, which was then cultured for another 18 hours.
The intensity of luminescence caused by the product of the enzyme reaction for intracellular luciferase expression was measured using Luc Lite (Packard BioScience Company). A group in which test compounds were not added was used as a negative control group. The values measured for this group were used as a standard. The activities for each concentration of added test compound were expressed relative to the above-mentioned standard value, 1.

The target of data set [3] is T1, human HDAC1 (Homo sapiens, UniProt Q13547).
T1 construct: FLAG; made in house; host or cells: 293T cells (transient transfection, anti-FLAG immunoprecipitation, FLAG peptide elution)
T1 sequence (Q13547 whole entry): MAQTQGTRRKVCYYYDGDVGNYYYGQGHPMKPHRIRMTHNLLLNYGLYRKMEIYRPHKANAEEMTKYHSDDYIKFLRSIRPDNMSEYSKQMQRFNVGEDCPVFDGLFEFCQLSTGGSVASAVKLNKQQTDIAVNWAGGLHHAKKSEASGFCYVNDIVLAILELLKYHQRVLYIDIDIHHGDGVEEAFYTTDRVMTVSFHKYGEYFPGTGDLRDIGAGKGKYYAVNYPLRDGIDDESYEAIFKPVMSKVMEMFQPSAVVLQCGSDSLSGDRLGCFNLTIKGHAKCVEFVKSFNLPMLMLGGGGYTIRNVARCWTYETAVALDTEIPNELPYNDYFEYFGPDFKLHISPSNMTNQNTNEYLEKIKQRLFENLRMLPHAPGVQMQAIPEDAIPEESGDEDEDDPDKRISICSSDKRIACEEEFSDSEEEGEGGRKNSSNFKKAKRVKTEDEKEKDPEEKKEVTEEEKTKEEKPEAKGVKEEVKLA
As to the kind of experiment: In vitro HDAC inhibition activity, [3H]-acetylated histone substrate, HDAC1. Format: biochemical. To be noted: Table 3. As for the experimental part:
(§1) To measure HDAC inhibition activity, an HDAC solution was prepared as described below. 1×10^7 of 293T cells were plated on to a 100-mm dish and, after 24 hours, transfected with vectors (1 μg) expressing human HDAC1 and HDAC4 or mouse HDAC6, using LipofectAmine 2000 reagent (Life Technologies, Inc. Gaithersburg, Md.). […] The vectors were introduced for five hours in OPTI-MEM. The medium was then replaced with Dulbecco's modified Eagle's medium (DMEM), and incubated for 19 hours. The cells were washed with PBS, suspended in lysis buffer (50 mM Tris-HCl (pH7.5), 120 mM NaCl, 5 mM EDTA, and 0.5% Nonidet P-40), and sonicated. The supernatant was collected by centrifugation and nonspecific protein was removed using Protein A/G plus agarose beads (Santa Cruz Biotechnologies, Inc.). Anti-FLAG M2 antibodies (Sigma-Aldrich, Inc.) were added to the supernatant of cells expressing HDAC1 or HDAC4. Anti-HA antibodies (clone 3F10, Roche Molecular Biochemicals) were added to the supernatant of cells expressing HDAC6. Reaction in the respective mixtures was carried out at 4° C. for one hour. The resulting reaction mixtures were independently mixed with agarose beads and further reacted at 4° C. for one hour. The agarose beads were washed three times with lysis buffer and then washed once with HD buffer (20 mM Tris-HCl (pH8.0), 150 mM NaCl, 10% glycerol, and a complete protease inhibitor cocktail (Boehringer Mannheim, Germany)). […] The HDAC reaction solution was used for determining HDAC inhibition activity as shown below.
(§2) In vitro HDAC inhibition activity was evaluated as follows: A test compound was dissolved in DMSO and adjusted to 10 mM. This was used as an inhibitor stock solution. […] These reactions were stopped by adding 10 μl HCl. The [^3H] acetic acid excised by the enzyme reaction was extracted with ethyl acetate and subjected to radioactive dose measurement. As a negative control, the same procedure was carried out in which no inhibitor was added to the reaction system. The inhibition activity was expressed as a 50% inhibition concentration (“IC50 (nM)”) of the HDAC activity in the negative control (Tables 1 to 4).

Data set [4] concerns the target T2, human HDAC4 (Homo sapiens, UniProt P56524).
T2 construct: FLAG; made in house; host or cells: 293T cells (transient transfection, anti-FLAG immunoprecipitation, FLAG peptide elution)
As to the kind of experiment: In vitro HDAC inhibition activity, [3H]-acetylated histone substrate, HDAC4. Format: biochemical. To be noted: Table 3. The protocol:
as §1, §2

Data set [5] addresses T3, mouse HDAC6 (Mus musculus, UniProt Q9Z2V5).
T3 construct: HA; made in house; host or cells: 293T cells (transient transfection, anti-HA immunoprecipitation, HA peptide elution)
T3 sequence (Q9Z2V5 1-1149): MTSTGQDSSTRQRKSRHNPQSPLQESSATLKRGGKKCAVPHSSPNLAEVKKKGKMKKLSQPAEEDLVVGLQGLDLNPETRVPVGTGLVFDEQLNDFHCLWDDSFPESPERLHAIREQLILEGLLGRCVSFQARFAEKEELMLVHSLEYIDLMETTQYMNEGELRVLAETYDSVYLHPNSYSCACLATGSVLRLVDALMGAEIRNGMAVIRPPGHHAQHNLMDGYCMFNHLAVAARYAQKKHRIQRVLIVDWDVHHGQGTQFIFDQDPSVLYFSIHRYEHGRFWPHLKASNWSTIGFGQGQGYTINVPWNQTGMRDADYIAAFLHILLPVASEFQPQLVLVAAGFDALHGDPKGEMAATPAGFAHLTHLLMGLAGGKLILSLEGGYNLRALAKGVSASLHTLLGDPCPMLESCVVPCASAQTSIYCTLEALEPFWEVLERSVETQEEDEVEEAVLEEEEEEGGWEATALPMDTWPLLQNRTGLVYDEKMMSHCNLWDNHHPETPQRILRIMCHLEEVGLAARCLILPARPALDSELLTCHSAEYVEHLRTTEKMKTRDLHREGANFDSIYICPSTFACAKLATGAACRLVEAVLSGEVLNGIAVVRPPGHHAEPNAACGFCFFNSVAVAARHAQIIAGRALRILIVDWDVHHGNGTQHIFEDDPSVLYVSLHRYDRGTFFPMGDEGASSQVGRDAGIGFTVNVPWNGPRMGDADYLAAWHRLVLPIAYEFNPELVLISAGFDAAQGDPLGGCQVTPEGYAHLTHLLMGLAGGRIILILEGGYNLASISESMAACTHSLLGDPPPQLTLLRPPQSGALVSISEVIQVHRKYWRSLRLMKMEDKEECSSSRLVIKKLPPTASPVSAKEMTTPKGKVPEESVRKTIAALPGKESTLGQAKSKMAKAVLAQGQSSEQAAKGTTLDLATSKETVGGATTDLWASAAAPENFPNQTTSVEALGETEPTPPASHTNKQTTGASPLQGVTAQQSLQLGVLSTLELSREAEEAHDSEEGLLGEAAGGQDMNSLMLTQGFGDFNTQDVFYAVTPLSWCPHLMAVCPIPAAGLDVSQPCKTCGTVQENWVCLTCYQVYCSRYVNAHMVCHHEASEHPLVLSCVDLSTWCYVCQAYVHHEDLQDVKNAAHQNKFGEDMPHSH
As to the kind of experiment: In vitro HDAC inhibition activity, [3H]-acetylated histone substrate, HDAC6. Format: biochemical. The note with it: Table 3. The protocol:
as §1, §2

The mark [6] stands for this setting: Table 3, hybrid with DTT (/DTT).
[7] abbreviates: from H-dTyr(Me)-Ile-dPro-Ab6-OH, 9.7 mM.

Like-named read-outs stand apart in the source and are kept apart here. *1 amine or outer side, *2 acyl side, *3 side chain or, on linkers, in order; H or OH if unused. Where a SMILES comes first, the peptide text is derived from it. [ ]: non-standard residue; d: D form. The star is where a group is joined. hNle(7-SH) = O=C([C@H](CCCCCS[*:3])N[*:1])[*:2]; X1 = CN(C)C(=O)c1cc(S*)ccc1[N+](=O)[O-]

T2 sequence (O15379 whole entry partner): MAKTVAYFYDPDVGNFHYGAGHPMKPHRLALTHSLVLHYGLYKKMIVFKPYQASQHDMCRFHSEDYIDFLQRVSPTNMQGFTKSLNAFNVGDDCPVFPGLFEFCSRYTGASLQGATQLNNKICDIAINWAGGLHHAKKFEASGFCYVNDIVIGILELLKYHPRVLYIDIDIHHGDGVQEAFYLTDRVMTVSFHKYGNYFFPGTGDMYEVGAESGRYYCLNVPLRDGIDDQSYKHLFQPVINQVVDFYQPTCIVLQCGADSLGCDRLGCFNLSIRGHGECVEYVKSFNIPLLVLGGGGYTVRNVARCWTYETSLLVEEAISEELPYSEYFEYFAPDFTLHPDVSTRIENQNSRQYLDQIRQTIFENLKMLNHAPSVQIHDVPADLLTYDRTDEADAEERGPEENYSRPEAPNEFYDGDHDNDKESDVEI
T2 sequence (P56524 whole entry): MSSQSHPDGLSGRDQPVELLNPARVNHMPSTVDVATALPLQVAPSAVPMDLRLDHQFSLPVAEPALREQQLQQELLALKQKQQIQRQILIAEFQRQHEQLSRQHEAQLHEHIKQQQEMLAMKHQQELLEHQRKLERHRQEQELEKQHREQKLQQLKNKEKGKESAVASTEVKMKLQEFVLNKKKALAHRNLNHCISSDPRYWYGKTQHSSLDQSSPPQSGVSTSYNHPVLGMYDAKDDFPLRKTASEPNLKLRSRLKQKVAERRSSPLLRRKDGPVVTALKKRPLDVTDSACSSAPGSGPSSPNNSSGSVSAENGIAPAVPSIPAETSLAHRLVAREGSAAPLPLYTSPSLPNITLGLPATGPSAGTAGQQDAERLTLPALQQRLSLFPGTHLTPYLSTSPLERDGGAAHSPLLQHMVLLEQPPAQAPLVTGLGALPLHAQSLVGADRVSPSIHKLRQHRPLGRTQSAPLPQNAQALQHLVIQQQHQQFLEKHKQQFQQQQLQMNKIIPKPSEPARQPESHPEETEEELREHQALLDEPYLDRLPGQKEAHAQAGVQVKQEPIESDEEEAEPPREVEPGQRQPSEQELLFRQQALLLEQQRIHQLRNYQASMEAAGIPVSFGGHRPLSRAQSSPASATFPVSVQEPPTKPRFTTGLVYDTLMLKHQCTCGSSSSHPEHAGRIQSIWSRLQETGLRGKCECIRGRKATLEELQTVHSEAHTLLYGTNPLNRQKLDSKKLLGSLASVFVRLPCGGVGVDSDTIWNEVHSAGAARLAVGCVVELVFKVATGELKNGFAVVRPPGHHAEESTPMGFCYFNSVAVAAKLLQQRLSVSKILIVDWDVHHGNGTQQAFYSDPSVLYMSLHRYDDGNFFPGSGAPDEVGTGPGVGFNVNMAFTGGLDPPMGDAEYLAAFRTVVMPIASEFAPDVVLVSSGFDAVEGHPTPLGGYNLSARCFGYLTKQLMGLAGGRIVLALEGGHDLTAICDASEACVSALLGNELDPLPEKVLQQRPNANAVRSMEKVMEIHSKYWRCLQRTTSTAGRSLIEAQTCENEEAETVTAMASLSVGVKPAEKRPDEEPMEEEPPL

Molecule `CC[C@H](C)[C@@H]1NC(=O)[C@@H](Cc2ccc(OC)cc2)NC(=O)[C@H](CCCCCBr)NC(=O)[C@H]2CCCN2C1=O` [H-Ab7-dTyr(Me)-Ile-dPro-OH] came in with a ring closure, isolated yield in data set [1] (from H-Ab7-dTyr(Me)-Ile-dPro-OH, 10.2 mM) of 64%.
For the molecule `CC[C@H](C)[C@@H]1NC(=O)[C@@H](Cc2ccc(OC)cc2)NC(=O)[C@H](CCCCCSSc2ccc([N+](=O)[O-])c(C(=O)N(C)C)c2)NC(=O)[C@H]2CCCN2C1=O` [SCOP 403, cyclo(-L-Am7(SEll)-D-Tyr(Me)-L-Ile-D-Pro-)] (cyclo([hNle(7-SH)](X1)[dY](Me)I[dP])), the concentration giving a half-maximal response (EC50) is 748 nM in data set [2] (setting [6]) and 1800 nM in data set [2] (Table 3, hybrid, without DTT). The IC50 in data set [3] (hybrid with DTT (/DTT)) came out at 1.15 nM; in data set [3] (hybrid, without DTT) it was 21.5 nM; in data set [4] (hybrid with DTT (/DTT)), 1.53 nM; in data set [4] (hybrid, without DTT), 18.9 nM; in data set [5] (hybrid with DTT (/DTT)), 4730 nM; in data set [5] (hybrid, without DTT), 6080 nM.
Regarding `CC[C@H](C)[C@@H]1NC(=O)[C@@H](Cc2ccc(OC)cc2)NC(=O)[C@H](CCCCCSSCCO)NC(=O)[C@H]2CCCN2C1=O` [SCOP 404, cyclo(-L-Am7(SMEt)-D-Tyr(Me)-L-Ile-D-Pro-)], the EC50 came to 754 nM in data set [2] (setting [6]) and 1360 nM in data set [2] (Table 3, hybrid, without DTT). The IC50 stood at 2.44 nM in data set [3] (hybrid with DTT (/DTT)); 217 nM in data set [3] (hybrid, without DTT); 13 nM in data set [4] (hybrid with DTT (/DTT)); 355 nM in data set [4] (hybrid, without DTT); 15400 nM in data set [5] (hybrid with DTT (/DTT)); 201000 nM in data set [5] (hybrid, without DTT).
For `CC[C@H](C)[C@@H]1NC(=O)[C@@H](Cc2ccc(OC)cc2)NC(=O)[C@H](CCCCOn2nnc3cccnc32)NC(=O)[C@H]2CCCN2C1=O` [cyclo(-L-A(OAt)6-D-Tyr(Me)-L-Ile-D-Pro-)], in data set [1] (setting [7]), the ring closure, isolated yield was found to be 27%.
The same measure, in the same setting: under `CC[C@H](C)[C@@H]1NC(=O)[C@@H](Cc2ccc(OC)cc2)NC(=O)[C@H](CCCCOn2nnc3cccnc32)NC(=O)[C@H]2CCCN2C1=O` [cyclo(-L-Ab6-D-Tyr(Me)-L-Ile-D-Pro-)] stands 23%.
In data set [1] (from H-dTyr(Me)-Ile-dPip-Ab7-OH?, 2.0 mM), `CC[C@H](C)[C@@H]1NC(=O)[C@@H](Cc2ccc(OC)cc2)NC(=O)[C@H](CCCCCBr)NC(=O)[C@H]2CCCCN2C1=O` [cyclo(-L-Ab7-D-Tyr(Me)-L-Ile-D-Pip-)] showed a ring closure, isolated yield of 39%.
As to `CC[C@H](C)[C@@H]1NC(=O)[C@@H](Cc2ccc(OC)cc2)NC(=O)[C@H](CCCCCBr)NC(=O)[C@@H]2CCCCN2C1=O` [cyclo(-L-Ab7-D-Tyr(Me)-L-Ile-L-Pip-)], the ring closure, isolated yield in data set [1] (from H-dTyr(Me)-Ile-Pip-Ab7-OH?, 2.0 mM) was found to be 61%.
In turn, `CC[C@H](C)[C@@H]1NC(=O)[C@@H](Cc2ccc(OC)cc2)NC(=O)[C@H](CCCCCBr)NC(=O)[C@@H]2CCCN2C1=O` [cyclo(-L-Ab7-D-Tyr(Me)-L-Ile-L-Pro-)] yielded a ring closure, isolated yield in data set [1] (from H-dTyr(Me)-Ile-Pro-Ab7-OH, 1.02 mM) of 21%.
In data set [1] (from H-Ab8-dTyr(Me)-Ile-dPro-OH, 10.0 mM), `CC[C@H](C)[C@@H]1NC(=O)[C@@H](Cc2ccc(OC)cc2)NC(=O)[C@H](CCCCCCBr)NC(=O)[C@H]2CCCN2C1=O` [cyclo(-L-Ab8-D-Tyr(Me)-L-Ile-D-Pro-)] displayed a ring closure, isolated yield of 55%.
The molecule `CC[C@H](C)[C@@H]1NC(=O)[C@@H](Cc2ccc(OC)cc2)NC(=O)[C@H](CCCCCCCBr)NC(=O)[C@H]2CCCN2C1=O` [cyclo(-L-Ab9-D-Tyr(Me)-L-Ile-D-Pro-)] registered a ring closure, isolated yield in data set [1] (from H-Ab9-dTyr(Me)-Ile-dPro-OH, 9.4 mM) of 61%.
